Reference: patent US20240270821A1, “GIP/GLP1/GCG TRI-RECEPTOR AGONISTS AND USES THEREOF” (priority 2023, published 2024)
Starred links: 1 amine or outer side, 2 acyl side, 3 side chain; linkers in the order of their positions; H or OH if unused. Non-standard residues stand in square brackets, D forms with d. Groups on a side chain read outwards from the residue. *: point of attachment. C18 diacid = O=C(O)CCCCCCCCCCCCCCCCC(=O)*; γGlu = O=C(O)[C@H](CCC(=O)[*:2])N[*:1]; αMe4Pal = C[C@](N)(Cc1ccncc1)C(=O)O; αMeY = C[C@](N)(Cc1ccc(O)cc1)C(=O)O; 4Pal = N[C@@H](Cc1ccncc1)C(=O)O; αMeL = CC(C)C[C@](C)(N)C(=O)O; AEEA = NCCOCCOCC(=O)O; Aib = CC(C)(N)C(=O)O

What was measured:
Assay type in all cases: cell-based
[1] = biological target: T1, hGIPR (Homo sapiens, UniProt P48546); experiment: Functional cAMP activity in the presence of 1% HSA; details: read-out: cAMP Rel EC50, hGIPR
T1 sequence (P48546 22-466): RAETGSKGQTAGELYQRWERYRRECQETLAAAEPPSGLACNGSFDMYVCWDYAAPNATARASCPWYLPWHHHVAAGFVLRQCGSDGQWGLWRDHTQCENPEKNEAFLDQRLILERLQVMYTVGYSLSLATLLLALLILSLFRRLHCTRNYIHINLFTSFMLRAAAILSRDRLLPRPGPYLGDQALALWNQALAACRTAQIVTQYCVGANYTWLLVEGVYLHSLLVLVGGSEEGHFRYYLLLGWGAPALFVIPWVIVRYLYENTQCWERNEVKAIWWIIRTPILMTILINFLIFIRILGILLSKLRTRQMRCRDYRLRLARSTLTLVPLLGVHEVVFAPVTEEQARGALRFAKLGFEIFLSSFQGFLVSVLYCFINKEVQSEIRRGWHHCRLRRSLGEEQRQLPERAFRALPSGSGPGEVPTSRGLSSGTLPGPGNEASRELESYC

[2] = biological target: human GcgR (Homo sapiens, UniProt P47871); experiment: Functional cAMP activity in the presence of 1% HSA; details: read-out: cAMP Rel EC50, hGcgR
[3] = biological target: T2, hGLP-1R (Homo sapiens, UniProt P43220); experiment: Functional cAMP activity in the presence of 1% HSA; details: read-out: cAMP Rel EC50, hGLP-1R
[4] = biological target: T2, hGLP-1R; experiment: Functional cAMP activation in the presence of 0.1% casein (no HSA); details: in the presence of 0.1% casein (no HSA); geometric mean; read-out: Relative cAMP EC50, hGLP-1R;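 on Relative cAMP EC50, hGIPR: intracellular cAMP rise after 30 min at 37 °C read by HTRF against a standard curve, scaled between buffer alone (0%) and top control ligand concentration (100%), four-parameter fit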;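 on Relative cAMP EC50, hGLP-1R: intracellular cAMP rise after 30 min at 37 °C read by HTRF, normalized between buffer only (0%) and maximal control ligand (100%), four-parameter variable-slope fit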;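 on Relative cAMP EC50, hGcgR: intracellular cAMP rise after 30 min at 37 °C, read by HTRF against a cAMP standard curve, scaled from buffer only (0%) to maximal control ligand response (100%)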
[5] = biological target: hGcgR (Homo sapiens, UniProt P47871); experiment: as above; details: in the presence of 0.1% casein (no HSA); geometric mean; read-out: Relative cAMP EC50, hGcgR;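 further: intracellular cAMP rise after 30 min at 37 °C, read by HTRF against a cAMP standard curve, scaled from buffer only (0%) to maximal control ligand response (100%)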
[6] = biological target: T1, hGIPR; experiment: as above; details: in the presence of 0.1% casein (no HSA); geometric mean; read-out: Relative cAMP EC50, hGIPR

T2 sequence (P43220 24-463): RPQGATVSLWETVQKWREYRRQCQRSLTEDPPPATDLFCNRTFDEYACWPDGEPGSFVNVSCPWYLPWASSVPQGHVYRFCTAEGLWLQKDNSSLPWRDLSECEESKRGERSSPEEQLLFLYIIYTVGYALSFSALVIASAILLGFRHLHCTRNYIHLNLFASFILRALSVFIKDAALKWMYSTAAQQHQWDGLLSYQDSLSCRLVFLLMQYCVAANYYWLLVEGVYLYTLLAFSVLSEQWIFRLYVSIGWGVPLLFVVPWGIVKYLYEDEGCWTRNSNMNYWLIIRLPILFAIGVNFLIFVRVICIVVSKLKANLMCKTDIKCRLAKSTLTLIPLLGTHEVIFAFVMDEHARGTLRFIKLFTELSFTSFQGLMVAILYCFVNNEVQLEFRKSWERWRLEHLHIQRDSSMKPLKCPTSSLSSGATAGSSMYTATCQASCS
Chain of human GcgR (P47871 26-477): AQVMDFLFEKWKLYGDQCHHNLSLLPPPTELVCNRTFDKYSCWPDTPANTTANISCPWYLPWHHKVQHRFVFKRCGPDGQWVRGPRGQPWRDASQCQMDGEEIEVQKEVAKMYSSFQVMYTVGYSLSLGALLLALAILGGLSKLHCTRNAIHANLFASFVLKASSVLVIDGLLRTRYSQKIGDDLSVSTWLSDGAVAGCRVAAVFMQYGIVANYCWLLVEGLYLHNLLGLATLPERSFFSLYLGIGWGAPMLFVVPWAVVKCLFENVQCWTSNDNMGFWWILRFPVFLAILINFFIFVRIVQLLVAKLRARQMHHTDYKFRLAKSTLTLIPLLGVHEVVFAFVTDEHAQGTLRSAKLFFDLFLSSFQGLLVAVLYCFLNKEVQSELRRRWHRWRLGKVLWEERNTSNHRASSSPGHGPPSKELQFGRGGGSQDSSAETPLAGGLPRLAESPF
Chain of hGcgR (P47871 26-477): as above

Row | Substance | EC50 [1] | EC50 [2] | EC50 [3] | EC50 [4] | EC50 [5] | EC50 [6]
1 | H-Y[Aib]QGTFTSD[4Pal]SK[αMeL]LDKK([γGlu-γGlu-C18 diacid])AQ[Aib]AFIEYLIE[Aib]GPSSGAPPPSGS-NH2 [Example 907] | 8.86 nM | 1210 nM | 123 nM | 1.15 nM | 5.79 nM | 0.103 nM
2 | H-Y[Aib]QGTFTSD[4Pal]SK[αMeL]LDKK([γGlu-γGlu-C18 diacid])AQ[Aib]AFIEYLIE[Aib]GPSSGAPPPSGSE-NH2 [Example 904] | 15 nM | 1330 nM | 198 nM | 1.94 nM | 9.88 nM | 0.194 nM
3 | H-Y[Aib]QGTFTSD[4Pal]SK[αMeL]LDKK([γGlu-γGlu-C18 diacid])AQ[Aib]AFIEYLIE[Aib]GPSSGAPPPSGSEE-NH2 [Example 905] | 10.4 nM | 1390 nM | 215 nM | 2.52 nM | 12.3 nM | 0.217 nM
4 | H-Y[Aib]QGTFTSD[4Pal]SK[αMeL]LDKK([γGlu-γGlu-C18 diacid])AQ[Aib]AFIEYLIE[Aib]GPSSGAPPPSGSEEE-NH2 [Example 906] | 15.4 nM | 1170 nM | 236 nM | 2.48 nM | 14.7 nM | 0.212 nM
5 | H-Y[Aib]QGTFTSD[4Pal]SQ[αMeL]LDKK([AEEA-AEEA-γGlu-C18 diacid])AQ[αMe4Pal]AFIEYLIE[Aib]GPSSGAPPPSGS-NH2 [Example 816] | 15.9 nM | 1100 nM | 310 nM | 2.69 nM | 6.57 nM | 0.297 nM
6 | H-Y[Aib]QGTFTSD[4Pal]SQ[αMeL]LDKK([AEEA-γGlu-C18 diacid])AQ[Aib]AFIEYLLE[dA]GPSS[Aib]APPPSGT-NH2 [Example 824] | 28.9 nM | 1110 nM | 343 nM | 2.43 nM | 7.92 nM | 0.123 nM
7 | H-Y[Aib]QGTFTSD[4Pal]SQ[αMeL]LDKK([AEEA-γGlu-C18 diacid])AQ[Aib]AFIE[αMeY]LIEGGPSSGAPPPEGS-NH2 [Example 853] | 32.4 nM | 4500 nM | 102 nM | 0.507 nM | 26.5 nM | 0.224 nM
8 | H-Y[Aib]QGTFTSD[4Pal]SQ[αMeL]LDKK([AEEA-γGlu-C18 diacid])AQ[Aib]AFIE[αMeY]LLEGGPSSGAPPPSGS-NH2 [Example 910] | 25.7 nM | 2640 nM | 239 nM | 1.49 nM | 9.76 nM | 0.111 nM
9 | H-Y[Aib]QGTFTSD[4Pal]SQ[αMeL]LDKK([AEEA-γGlu-C18 diacid])AQ[αMe4Pal]AFIEWLIEGGPSSGAPPPSGS-NH2 [Example 830] | 44.8 nM | 809 nM | 180 nM | 0.791 nM | 3.21 nM | 0.132 nM
10 | H-Y[Aib]QGTFTSD[4Pal]SQ[αMeL]LDKK([AEEA-γGlu-C18 diacid])AQ[αMe4Pal]AFIEWLIEGGPSSGAPPPSGT-NH2 [Example 831] | 38.2 nM | 1450 nM | 237 nM | 0.672 nM | 4.63 nM | 0.604 nM
11 | H-Y[Aib]QGTFTSD[4Pal]SQ[αMeL]LDKK([AEEA-γGlu-C18 diacid])AQ[αMe4Pal]AFIEYLIAGGPSSGAPPPSGSEE-NH2 [Example 1029] | 22.3 nM | 511 nM | 170 nM | 1.79 nM | 5.35 nM | 0.163 nM
12 | H-Y[Aib]QGTFTSD[4Pal]SQ[αMeL]LDKK([AEEA-γGlu-C18 diacid])AQ[αMe4Pal]AFIEYLIEGGPSSGAPPPSGS-NH2 [Example 826] | 81.6 nM | 441 nM | 202 nM | 2.75 nM | 5.59 nM | 0.581 nM
13 | H-Y[Aib]QGTFTSD[4Pal]SQ[αMeL]LDKK([AEEA-γGlu-C18 diacid])AQ[αMe4Pal]AFIEYLIE[Aib]GPSSGAPPPEGS-NH2 [Example 851] | 24.4 nM | 558 nM | 428 nM | 3.06 nM | 3.38 nM | 0.215 nM
